Reference: ChEMBL document CHEMBL3399937, “(18)F-AmBF3-MJ9: a novel radiofluorinated bombesin derivative for prostate cancer imaging” (Bioorg Med Chem, 2015)

Target: Gastrin-releasing peptide receptor (Rattus norvegicus) (UniProt P52500)
Assay: Binding affinity to rat pancreatic acini GRPR

Chain of Gastrin-releasing peptide receptor (Rattus norvegicus) (P52500 whole entry): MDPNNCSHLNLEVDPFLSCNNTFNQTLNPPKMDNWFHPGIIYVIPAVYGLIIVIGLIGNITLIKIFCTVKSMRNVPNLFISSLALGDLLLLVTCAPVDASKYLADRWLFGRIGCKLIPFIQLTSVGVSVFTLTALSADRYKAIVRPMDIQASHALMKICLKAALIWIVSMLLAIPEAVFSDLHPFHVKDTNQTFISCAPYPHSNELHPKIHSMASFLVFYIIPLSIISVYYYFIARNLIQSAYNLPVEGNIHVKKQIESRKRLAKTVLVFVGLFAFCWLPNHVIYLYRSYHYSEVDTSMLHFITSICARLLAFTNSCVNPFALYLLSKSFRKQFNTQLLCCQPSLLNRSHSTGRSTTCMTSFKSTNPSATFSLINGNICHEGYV

## CC(C)C[C@H](NC(=O)C[C@H](O)[C@H](CC(C)C)NC(=O)[C@H](Cc1cnc[nH]1)NC(=O)CNC(=O)[C@@H](NC(=O)[C@H](C)NC(=O)[C@H](Cc1c[nH]c2ccccc12)NC(=O)[C@H](CCC(N)=O)NC(=O)[C@H](N)Cc1ccccc1)C(C)C)C(N)=O
  Activity: 0.9 nM
